Measurements published in PMC8565842, “Structural snapshots of human PepT1 and PepT2 reveal mechanistic insights into substrate and drug transport across epithelial membranes” (Science Advances, 2021).

Molecular target: T1, HsPepT2 (Homo sapiens, UniProt Q16348)
T1 construct: The wild-type HsPepT2 gene was cloned into a pXLG vector; expressed in transfected cells; host or cells: HEK293F cells, transient transfection (pXLG vector)
T1 sequence (Q16348 1-729): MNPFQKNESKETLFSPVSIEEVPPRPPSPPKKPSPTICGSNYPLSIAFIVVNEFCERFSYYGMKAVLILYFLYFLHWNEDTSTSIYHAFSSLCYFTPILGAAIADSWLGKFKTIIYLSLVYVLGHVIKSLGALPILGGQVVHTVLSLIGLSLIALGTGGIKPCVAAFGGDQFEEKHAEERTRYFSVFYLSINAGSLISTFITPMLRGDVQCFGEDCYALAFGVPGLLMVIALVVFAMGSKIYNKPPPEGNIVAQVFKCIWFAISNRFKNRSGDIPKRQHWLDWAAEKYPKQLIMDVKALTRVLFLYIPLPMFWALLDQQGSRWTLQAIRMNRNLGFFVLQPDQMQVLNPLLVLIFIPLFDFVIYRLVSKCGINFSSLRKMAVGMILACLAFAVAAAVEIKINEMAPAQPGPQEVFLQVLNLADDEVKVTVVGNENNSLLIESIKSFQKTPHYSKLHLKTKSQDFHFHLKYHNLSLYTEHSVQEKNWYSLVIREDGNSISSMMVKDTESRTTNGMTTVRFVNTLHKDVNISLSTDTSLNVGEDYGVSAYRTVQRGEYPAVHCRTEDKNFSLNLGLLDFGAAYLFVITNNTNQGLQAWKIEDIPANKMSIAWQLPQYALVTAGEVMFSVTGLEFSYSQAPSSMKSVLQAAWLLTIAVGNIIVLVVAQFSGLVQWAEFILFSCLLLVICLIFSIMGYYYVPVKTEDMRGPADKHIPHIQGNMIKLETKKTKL
Assay: Whole-cell AK-AMCA uptake competition assay in HsPepT2-transfected HEK293F cells
Type: cell-based
Settings: for IC50: HsPepT2-transfected HEK293F cells, 50 μM β-Ala-Lys-AMCA, pH 6.0, 10 min at 37°C, read-out: IC50, concentration-dependent competition of β-Ala-Lys-AMCA uptake
Experimental: The wild-type […]2 gene was cloned into a pXLG vector ([61]) containing an expression cassette composed of an N-terminal hexa-histidine tag followed by enhanced green fluorescent protein and a tobacco etch virus protease cleavage site. […] The reaction was stopped by adding 200 μl of ice-cold buffer, and the cells were then washed three times with the same buffer. Last, the cells were resuspended in 200 μl of buffer, and the fluorescence was measured in an M1000 microplate reader (TECAN) with excitation at 350 nm and emission at 450 nm. All experiments were performed in triplicates. […] For concentration-dependent uptake experiments, IC50 values were processed in GraphPad Prism 9.0 (GraphPad Software) using sigmoidal four-parameter curve fitting.

Compound	IC50 [µM]	Uptake of the fluorescent reporter after HsPepT2 overexpression (HEK293 cells overexpressing HsPepT2)
NCC(=O)CCC(=O)O [5-aminolevulinic acid]	373.5 ± 1.6	–
CC(C)[C@H](N)C(=O)OCC(CO)OCn1cnc2c(=O)nc(N)[nH]c21 (stereo partly drawn) [valganciclovir]	368.9 ± 1.5	–
ß-Ala-Lys-AMCA	–	specific uptake
